Experimental findings from article PMC10367051, “Comprehensive Mechanistic View of the Hydrolysis of Oxadiazole-Based Inhibitors by Histone Deacetylase 6 (HDAC6)” (ACS Chemical Biology, 2023) are described below.

Common to all, as to assay type: biochemical
One assay has as its target T1, zHDAC6 (Y745F) (Danio rerio, UniProt F8W4B7, Y745F).
T1 construct: Danio rerio HDAC6 (amino acids 440–798; zHDAC6); His (N, cleaved yes); MBP (N, cleaved yes); made in house; host or cells: RIPL Escherichia coli
T1 sequence (F8W4B7 440-798 Y745F): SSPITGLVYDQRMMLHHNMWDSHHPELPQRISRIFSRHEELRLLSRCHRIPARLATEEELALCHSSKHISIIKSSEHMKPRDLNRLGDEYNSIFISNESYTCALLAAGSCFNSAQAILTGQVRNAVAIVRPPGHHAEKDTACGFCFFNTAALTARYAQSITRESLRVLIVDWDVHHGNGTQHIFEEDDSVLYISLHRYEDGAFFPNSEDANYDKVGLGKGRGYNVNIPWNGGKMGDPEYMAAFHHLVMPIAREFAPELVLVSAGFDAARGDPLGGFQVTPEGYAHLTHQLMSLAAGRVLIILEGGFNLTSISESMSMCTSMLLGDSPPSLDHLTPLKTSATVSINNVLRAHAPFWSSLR
The assay can be described thus: Inhibition assay, zebrafish HDAC6 catalytic DD2 domain, Y745F mutant. The method, then: The second catalytic domain of Danio rerio HDAC6 (amino acids 440–798; zHDAC6) was expressed in RIPL Escherichia coli as described previously using the pEC566-zHDAC6 expression vector.[16],[38] Briefly, bacteria were incubated at 37 °C with shaking (250 rpm) until the optical density reached an OD600 = 0.5. Then, the culture was cooled to 18 °C for 1 h, and recombinant protein expression was induced by the addition of 75 μM isopropyl β-D-1-thiogalactopyranoside together with 200 μM ZnSO4. The culture was grown at 18 °C for an additional 18 h and harvested by centrifugation at 5500g for 15 min. The cell pellet was resuspended in the lysis buffer (50 mM phosphate, 300 mM NaCl, 10% glycerol, and 20 mM imidazole at pH 8; 5 mL g^–1 bacterial pellet) and lysed by three passages through EmulsiFlex (Avestin). Cell lysates were centrifuged (15,000g at 4 °C for 20 min), and the fusion protein in the supernatant was purified via Ni-NTA chromatography. Fractions containing the His-MBP-HDAC6 fusion were concentrated to 2 mg mL^–1 and cleaved overnight by the addition of TEV protease (zHDAC6/TEV 1:20 ratio). The cleaved tag and the TEV protease were sequentially removed using amylose (New England Biolabs) and HisTrap columns (Cytiva), and zHDAC6 was further purified by size-exclusion chromatography on a HiLoad Superdex 75 pg column (GE Healthcare Bio-Sciences). Fractions containing zHDAC6 were pooled, concentrated to 10 mg mL^–1, flash-frozen in liquid nitrogen, and stored at −80 °C. The purity of protein preparations was monitored by SDS-PAGE (Figure S2).
The zHDAC6 mutants (Y745F and H574A) were constructed using the Quick-change site-directed mutagenesis protocol with the pEC566-zHDAC6 expression plasmid as a template. Both mutants were expressed and purified as described above for wild-type zHDAC6 (Figure S2).
(§1) Optimized fluorometric assays were used to determine inhibition constants of studied compounds against individual HDAC isoforms as described previously.[32] Briefly, reactions were performed in the activity buffer comprising 50 mM HEPES, 140 mM NaCl, and 10 mM KCl at pH 7.4 supplemented with 1 mg mL^–1 bovine serum albumin (BSA), 1 mM tris(2-carboxyethyl)phosphine (TCEP), 10 μM substrates, and optimized concentrations of HDACs. The Ac-Gly-Ala-[Lys-Ac]-7-amino-methylcoumarylamide (AMC) substrate was used to profile HDACs 1, 2, 3, and 6; Boc-[Lys-TFA]-7-amino-methylcoumarylamide was used for HDACs 4, 5, 7, 8, and 9 (both substrates: Bachem); fluorescein-labeled N8-acetylspermidine was used for HDAC10;[32] and an internally quenched TNFα-derived peptide derivative was used for HDAC11.[39] Deacetylation reactions were monitored either by high-performance liquid chromatography (HPLC) (HDAC10) or by quantification of released AMC (λex/λem = 365/440 nm) using a CLARIOstar plate reader (BMG Labtech GmbH).

For a further assay, the target named is T2, HDAC2 (Homo sapiens, UniProt Q92769).
T2 construct: TwinStrep-FLAG-HALO (N, cleaved yes); made in house; host or cells: HEK293/T17
The assay can be described thus: Fluorometric HDAC inhibition assay, HDAC2. As to conditions: purified human protein; Ac-Gly-Ala-[Lys-Ac]-AMC substrate 10 μM; 15 min preincubation. The procedure:
(§2) Large-scale expression of recombinant human HDACs was carried out as described previously.[32],[37] Briefly, HEK293/T17 cells were transiently transfected with expression pMM222 plasmids comprising N-terminally tagged (TwinStrep-FLAG-HALO tag; Figure S1) HDAC genes using linear poly(ethyleneimine) (PEI, Polysciences Inc.). Cells were harvested three days post-transfection, and cell pellets were resuspended in the lysis buffer (100 mM Tris-HCl, 10 mM NaCl, 5 mM KCl, 2 mM MgCl2, and 10% glycerol at pH 8.0). Cells were disrupted by sonication, cell lysates were cleared by centrifugation, and soluble fusion proteins were first purified by Streptactin affinity chromatography (IBA). For all HDACs but HDACs 1, 10, and 11, the N-terminal tag was cleaved off overnight by the addition of TEV protease (10:1 HDAC/TEV ratio). Size-exclusion chromatography on a Superose 6 column (GE Healthcare Bio-Sciences; running buffer 30 mM HEPES, 140 mM NaCl, 10 mM KCl, 3% glycerol, and 0.25 mM TCEP) was used as the final purification step for all HDAC constructs.
as §1

Another assay deals with T3, HDAC4 (Homo sapiens, UniProt P56524).
T3 construct: TwinStrep-FLAG-HALO (N, cleaved yes); made in house; host or cells: HEK293/T17
As to the kind of experiment: Fluorometric HDAC inhibition assay, HDAC4. The settings on record: purified human protein; Boc-[Lys-TFA]-AMC substrate 10 μM; 15 min preincubation. The method, then: as §2, §1

As usually defined, the IC50 is the point on the concentration scale where inhibition reaches its midpoint. Higher therefore signals lower potency.

T3 sequence (P56524 whole entry): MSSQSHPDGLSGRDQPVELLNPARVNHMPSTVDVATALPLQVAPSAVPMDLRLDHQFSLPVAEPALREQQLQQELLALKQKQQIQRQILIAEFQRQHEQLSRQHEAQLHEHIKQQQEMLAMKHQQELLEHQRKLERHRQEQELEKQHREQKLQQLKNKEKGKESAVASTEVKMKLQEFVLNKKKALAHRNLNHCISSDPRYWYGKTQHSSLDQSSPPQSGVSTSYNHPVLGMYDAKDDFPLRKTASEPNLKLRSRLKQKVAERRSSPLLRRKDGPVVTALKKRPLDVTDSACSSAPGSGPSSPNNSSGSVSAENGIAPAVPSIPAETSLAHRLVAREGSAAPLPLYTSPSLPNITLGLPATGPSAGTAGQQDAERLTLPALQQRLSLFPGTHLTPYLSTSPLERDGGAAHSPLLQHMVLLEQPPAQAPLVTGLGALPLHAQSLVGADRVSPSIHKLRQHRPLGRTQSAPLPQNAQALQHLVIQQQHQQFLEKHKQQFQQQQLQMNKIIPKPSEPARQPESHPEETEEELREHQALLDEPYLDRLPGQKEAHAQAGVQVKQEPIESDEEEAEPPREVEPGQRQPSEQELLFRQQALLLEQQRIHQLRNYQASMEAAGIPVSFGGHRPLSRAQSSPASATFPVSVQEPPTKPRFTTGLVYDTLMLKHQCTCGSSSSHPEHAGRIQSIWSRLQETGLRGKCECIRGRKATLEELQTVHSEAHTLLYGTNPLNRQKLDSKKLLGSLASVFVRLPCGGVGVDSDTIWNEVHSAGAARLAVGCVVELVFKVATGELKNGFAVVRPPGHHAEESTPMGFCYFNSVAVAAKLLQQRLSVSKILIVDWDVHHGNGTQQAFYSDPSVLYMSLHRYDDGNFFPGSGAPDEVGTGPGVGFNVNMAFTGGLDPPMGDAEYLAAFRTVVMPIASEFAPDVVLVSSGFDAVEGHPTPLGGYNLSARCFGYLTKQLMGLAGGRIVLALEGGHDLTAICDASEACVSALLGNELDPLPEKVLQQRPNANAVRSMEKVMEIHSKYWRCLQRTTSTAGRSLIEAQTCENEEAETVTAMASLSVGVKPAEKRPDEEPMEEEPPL
T2 sequence (Q92769 whole entry): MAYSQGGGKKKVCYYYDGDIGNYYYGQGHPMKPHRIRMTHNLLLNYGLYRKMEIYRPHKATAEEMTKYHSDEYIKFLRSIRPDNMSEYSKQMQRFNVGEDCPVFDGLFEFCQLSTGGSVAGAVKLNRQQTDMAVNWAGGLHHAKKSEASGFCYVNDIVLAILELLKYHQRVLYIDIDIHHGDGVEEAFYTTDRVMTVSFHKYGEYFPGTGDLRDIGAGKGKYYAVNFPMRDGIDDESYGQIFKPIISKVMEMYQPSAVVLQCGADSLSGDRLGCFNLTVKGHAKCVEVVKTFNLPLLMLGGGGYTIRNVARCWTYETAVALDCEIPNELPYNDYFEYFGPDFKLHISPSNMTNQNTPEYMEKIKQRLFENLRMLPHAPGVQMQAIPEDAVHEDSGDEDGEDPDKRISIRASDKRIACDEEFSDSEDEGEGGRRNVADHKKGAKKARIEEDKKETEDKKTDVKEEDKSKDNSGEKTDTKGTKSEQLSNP

As to `CS(=O)(=O)N(Cc1ccc(-c2nnc(C(F)F)o2)cn1)c1cccc(Cl)c1` [compound 8], the IC50 against zHDAC6 (Y745F) was 0.075 ± 0.026 µM; on HDAC2 it was more than 20 µM; on HDAC4, more than 20 µM.
As to `CS(=O)(=O)N(Cc1ccc(-c2nnc(C(F)(F)F)o2)cn1)c1cccc(Cl)c1` [compound 7], the 50% inhibitory concentration (IC50) at zHDAC6 (Y745F) is 0.311 ± 0.15 µM; against HDAC2, 17.4 µM; against HDAC4, more than 20 µM.
For `CS(=O)(=O)N(Cc1ccc(C(=O)NN)cn1)c1cccc(Cl)c1` [compound 4], the IC50 against zHDAC6 (Y745F) is more than 50 µM; against HDAC2, more than 20 µM; against HDAC4, more than 20 µM.
`CS(=O)(=O)N(Cc1ccc(C(=O)NNC(=O)C(F)(F)F)cn1)c1cccc(Cl)c1` [compound 5]: the IC50 against zHDAC6 (Y745F), against HDAC2 and against HDAC4 was more than 20 µM each time.
For `CS(=O)(=O)N(Cc1ccc(C(=O)NNC(=O)C(F)F)cn1)c1cccc(Cl)c1` [compound 6], the figures for the IC50 against zHDAC6 (Y745F) and against HDAC4 were more than 50 µM and more than 20 µM, respectively.
